Reference: patent US20100093655A1 (priority 2007, published 2010)
Read-outs that look alike come from different tables or passages of the source. Marks after values point to notes of the source that are not given here.

Key:
[1] = test system: lymphocytes of patients suffering from AIDS; format: cell-based, human; conditions: after 6 days (day 12-18)
[2] = test system: lymphocytes of patients suffering from AIDS; format: cell-based, human; conditions: for Cell survival rate (×100%): day 18 vs day 12
HIV-1 = conditions: for Viral RNA Number of copies/ml: after 6 days (day 12-18); for viral RNA expressed, more than the control: patient two, no therapy
HIV-1 proviral DNA = assay: Proviral DNA, modified Muprovama test; conditions: for Proviral DNA Number of copies/10^6 cells: after 6 days (day 12-18); for Log of proviral HIV DNA: riluzole 0.1 μM (+), mean ± S.D.
Ki-67 antigen = assay: Expression of the Ki-67 antigen (flow cytometry); format: cell-based, human
IL-15 = assay: Measurement of interleukin-15 production (ELISA of supernatant); format: cell-based; conditions: riluzole 10^-8 M, culture supernatant, without riluzole 1
Toll receptor 3 gene = assay: Detection of cytokines by real-time PCR; format: cell-based; conditions: real-time PCR (FIG. 8)
Protocol: (§1) Using real-time PCR, 2 μg of total RNA is first reverse-transcribed by means of a kit (High Capacity cDNA Archive kit PN: 4322171, Applied Biosystems, Foster City, Calif.) using random primers and the MultiScribe RT enzyme (5 U/μl) for 2 hours at 37° C. The method of labeling with a SYBR Green, a fluorescent molecule which intercalates into the minor groove of the double helix, was used. The reaction is carried out using a thermocycler (ABI prism 7900 HT, Applied Biosystems, Foster City, Calif.). Each point studied was composed of 5 μl of SYBR Green PCR Master Mix (PN:4344463; Applied Biosystems, Foster City, Calif.), 0.3 μl of sense and antisense primer at a concentration of 10 μM (Proligo), 3.4 μl of Rnase-free water and 1 μl of cDNA. After a denaturation step at 95° C. for 15 min, the amplification is carried out after 40 cycles at 95° C. for 15 s, 60° C. for 30 s and 72° C. for 30 s. At the end of the PCR, a dissociation step corresponding to the amplification peak, which takes place in a cycle of 95° C. for 15 s, 60° C. for 15 s and 95° C. for 15 s, verifies the validity of the primers. The primers for all the genes studied were chosen according to the Oligo Explorer 1.1 amplification conditions. The samples were studied in duplicate in the presence of a negative control, composed of Master Mix and the primers, but without the cDNA. Glyceraldehyde phosphate dehydrogenase (GAPDH) was used as endogenous control gene.
(§2) The effect of the treatments on the levels of mRNA of interest is studied using the method of comparison of CTs (Peinnequin et al., 2004) or number of cycles necessary to reach a threshold fluorescence value (software SDS 2.1, AB prism).
(§3) The sequences of the primers used are the following (Proligo LLC, Boulder, Colo., USA) (forward-reverse): […]

interferon-β gene = assay: Detection of cytokines by real-time PCR; format: cell-based; conditions: real-time PCR (FIG. 8)
Protocol: as §1, §2, §3

interferon-α gene = assay: Detection of cytokines by real-time PCR; format: cell-based; conditions: real-time PCR (FIG. 8)
Protocol: as §1, §2, §3

IL-15 gene = assay: Detection of cytokines by real-time PCR; format: cell-based; conditions: real-time PCR (FIG. 8)
Protocol: as §1, §2, §3

NB4 line = assay: Inhibition of tumor cell proliferation; format: cell-based; conditions: NB4 line (FIG. 9c)
Source text: (§4) After 5 days, the proliferation of the cells is estimated by tritiated (3H) thymidine incorporation. Other tumor lines were used, namely the H9 line (T lymphoma), the NB4 line (line derived from an acute promyelocytic leukemia) and the Jurkat line (T-lymphoma-derived lymphoblastic T cell line).

H9 line = assay: Inhibition of tumor cell proliferation; format: cell-based; conditions: H9 line (FIG. 9d)
Source text: as §4

Jurkat line = assay: Inhibition of tumor cell proliferation; format: cell-based; conditions: Jurkat line (FIG. 9b)
Source text: as §4

[3] = test system: TG 180 line (Crocker sarcoma tumor); assay: Inhibition of tumor cell proliferation (3H thymidine incorporation); format: cell-based; conditions: 120 h, 5 days (FIG. 9a)
Source text: as §4

FAS (CD95/APO-1) = assay: Apoptosis induced by the anti-FAS antibody (annexin V expression); format: cell-based, human; conditions: lymphocytes of patient two
Protocol: The apoptotic cells were measured using propidium iodide and FITC-labeled annexin V, which is a phospholipid-binding protein that binds preferentially to the phosphatidylserine exposed at the surface of the cells in the initial phase of apoptosis, by means of a commercially available kit (Immunotech, Marseille, France). The cells that were propidium-iodide-negative and annexin-V-positive were identified as being apoptotic cells, whereas those that were positive for both propidium iodide and annexin V were considered to be pre-necrotic cells. The apoptosis caused by the anti-FAS monoclonal antibody (CD95/APO-1) (Immunotech, Marseille, France) was thus measured since it is well known that Fas/Fas ligand apoptosis is amplified in AIDS disease.
Counting of T cells having CD4+ and CD8+ phenotypes, of the Ki-67 activation marker and of annexin V was carried out by flow cytometry analysis (FACScan, Becton Dickenson, San José, Calif., USA). A series of monoclonal antibodies directed against the following surface markers of T cells was used: CD4-PerCP, CD8-PE (Becton Dickinson, France), Ki-67-FITC (Pharmingen, Los Angeles, Calif., USA), Annexin-FITC (Immunotech, Marseille, France).
As indicated above, it is well established that the lymphocytes of HIV-1-infected patients are sensitive to apoptosis induced by the expression of FAS (CD95/APO-1) and of its agonist, the anti-FAS antibody.

[4] = test system: lymphocytes of a patient suffering from AIDS; assay: Apoptosis test (annexin V / propidium iodide, flow cytometry); format: cell-based, human; conditions: after 13 days; 10^-7-10^-8 M
Protocol: The apoptotic cells were measured using propidium iodide and FITC-labeled annexin V, which is a phospholipid-binding protein that binds preferentially to the phosphatidylserine exposed at the surface of the cells in the initial phase of apoptosis, by means of a commercially available kit (Immunotech, Marseille, France). The cells that were propidium-iodide-negative and annexin-V-positive were identified as being apoptotic cells, whereas those that were positive for both propidium iodide and annexin V were considered to be pre-necrotic cells. […] Counting of T cells having CD4+ and CD8+ phenotypes, of the Ki-67 activation marker and of annexin V was carried out by flow cytometry analysis (FACScan, Becton Dickenson, San José, Calif., USA). A series of monoclonal antibodies directed against the following surface markers of T cells was used: CD4-PerCP, CD8-PE (Becton Dickinson, France), Ki-67-FITC (Pharmingen, Los Angeles, Calif., USA), Annexin-FITC (Immunotech, Marseille, France).

Cc1cn([C@H]2C[C@H](N=[N+]=[N-])[C@@H](CO)O2)c(=O)[nH]c1=O [AZT]
Viability % dead cells ([1]; Individual AR, AZT 1 μg/ml): 28% | Viability % dead cells ([1]; Individual AR, AZT 10 μg/ml): 25% | Viability % dead cells ([1]; Individual PR, AZT 1 μg/ml): 19% | Viability % dead cells ([1]; Individual PR, AZT 10 μg/ml): 20% | Viability % dead cells ([1]; Individual beta, AZT 1 μg/ml): 29% | Viability % dead cells ([1]; Individual beta, AZT 10 μg/ml): 20% | effect on proliferation of the control cells ([2]; AZT 10 μg/ml): suppressor (antiproliferative) effect | Cell survival rate (×100%) ([2]; Individual AR, AZT 1 μg/ml): 5 ×100% | Cell survival rate (×100%) ([2]; Individual AR, AZT 10 μg/ml): 4 ×100% | Cell survival rate (×100%) ([2]; Individual PE, AZT 10 μg/ml): 3 ×100% | Cell survival rate (×100%) ([2]; Individual PR, AZT 1 μg/ml): 12 ×100% | Cell survival rate (×100%) ([2]; Individual PR, AZT 10 μg/ml): 13 ×100% | Cell survival rate (×100%) ([2]; Individual beta, AZT 1 μg/ml): 3 ×100% | antiviral effect on the control cells (HIV-1; AZT 1 μg/ml): partial, or even equivalent | antiviral effect (HIV-1; AZT 10 μg/ml): exerts an antiviral effect | Viral RNA Number of copies/ml (HIV-1; Individual AR, AZT 1 μg/ml): 35 000 copies/ml | Viral RNA Number of copies/ml (HIV-1; Individual AR, AZT 10 μg/ml): <100 copies/ml | Viral RNA Number of copies/ml (HIV-1; Individual PR, AZT 1 μg/ml): 7000 copies/ml | Viral RNA Number of copies/ml (HIV-1; Individual PR, AZT 10 μg/ml): <100 copies/ml | Proviral DNA Number of copies/10^6 cells (HIV-1 proviral DNA; Individual AR, AZT 1 μg/ml): 6.1 Log copies/10^6 cells | Proviral DNA Number of copies/10^6 cells (HIV-1 proviral DNA; Individual AR, AZT 10 μg/ml): 5.4 Log copies/10^6 cells | Proviral DNA Number of copies/10^6 cells (HIV-1 proviral DNA; Individual PR, AZT 1 μg/ml): 4.9 Log copies/10^6 cells | Proviral DNA Number of copies/10^6 cells (HIV-1 proviral DNA; Individual PR, AZT 10 μg/ml): 4.8 Log copies/10^6 cells

Nc1nc2ccc(OC(F)(F)F)cc2s1 [riluzole, 6-(trifluoromethoxy)-2-aminobenzothiazole]
inhibition of Ki-67 antigen expression by all of the lymphocytes (Ki-67 antigen; after 13 days in the presence of riluzole (FIG. 6A)): ~33% | inhibition of Ki-67 antigen expression by the CD8 lymphocytes (Ki-67 antigen; after 13 days in the presence of riluzole (FIG. 6B)): ~37% | inhibition of Ki-67 antigen expression by the CD4 lymphocytes (Ki-67 antigen; after 13 days in the presence of riluzole (FIG. 6C)): ~50% | production of IL-15 (IL-15): 6 pg/mL | production of IL-15 (IL-15; listed as Riluzole): 15* pg/ml | expression of the Toll receptor 3 gene (Toll receptor 3 gene): capable of inducing the expression | expression of the interferon-β gene (interferon-β gene): capable of inducing the expression | expression of the interferon-α gene (interferon-α gene): capable of inducing the expression | expression of the IL-15 gene (IL-15 gene): capable of inducing the expression | inhibition of the proliferation of tumor cells (NB4 line): inhibition of the proliferation of these tumor cells is also observed | inhibition of the proliferation of tumor cells (H9 line): inhibition of the proliferation of these tumor cells is also observed | inhibition of the proliferation of tumor cells (Jurkat line): inhibition of the proliferation of these tumor cells is also observed | virus measurement versus control (HIV-1; patient one, 10^-7 M, days 3 and 6 of culture): virtually the same | HIV-1 RNA of conditioned cultures versus controls (HIV-1; patient one, 10^-7 M, days 10 and 13 (FIG. 1C)): twice as high | viral RNA expressed, more than the control (HIV-1; day 13 (FIG. 3C)): up to 0.7 log10 | viral RNA expressed, more than the control (HIV-1; from the 6th day, doses 10^-8 M, 10^-7 M and 10^-8 M as printed): 0.8 logn | HIV-1 RNA in culture supernatants, increase (HIV-1; untreated patient one, 10^-7 M, day 13 of culture): 100% | inhibition at 100 µM ([3]; 10^-4 M): 86% | inhibition at 10 µM ([3]; 10^-5 M (first mention)): 40% | inhibition at 10 µM ([3]; 10^-5 M (second mention)): 30% | Log of proviral HIV DNA (HIV-1 proviral DNA; TT(+), V: 44.000, Day 3 of culture): 2 ± 0.3 Log copies [cp]/10^6 cells | Log of proviral HIV DNA (HIV-1 proviral DNA; TT(+), V: 44.000, Day 6 of culture): 0.3 ± 0.1 Log copies [cp]/10^6 cells | Log of proviral HIV DNA (HIV-1 proviral DNA; TT(+), V: 250, Day 3 of culture): 3 ± 0.2 Log copies [cp]/10^6 cells | Log of proviral HIV DNA (HIV-1 proviral DNA; TT(+), V: 250, Day 6 of culture): 0.2 ± 0.1 Log copies [cp]/10^6 cells | Log of proviral HIV DNA (HIV-1 proviral DNA; TT(−), V: 68.000, Day 3 of culture): 3.7 ± 0.2 Log copies [cp]/10^6 cells | Log of proviral HIV DNA (HIV-1 proviral DNA; TT(−), V: 68.000, Day 6 of culture): 0.7 ± 0.1 Log copies [cp]/10^6 cells | inhibition at 0.01 µM (FAS (CD95/APO-1); Homo sapiens, Lymphocyte, 10^-8 M): 62% | apoptosis (annexin V expression) of cells coupled to anti-FAS antibody (FAS (CD95/APO-1); 10^-8 M, control 50%): 15% | percentage inhibition of apoptosis, cells cultured without anti-FAS antibody (FAS (CD95/APO-1); compared with the 62% inhibition with antibody): comparable | inhibition of apoptosis of CD4 lymphocytes [4]: 80% | inhibition of apoptosis of CD8 lymphocytes [4]: 70% | inhibition of total apoptosis expressed by all the lymphocytes [4]: 66%
